Residues, ends and D or L forms follow the SMILES beside them.
Compound `C#Cc1cccc(Nc2ncnc3ccc(S(=O)(=O)n4ccc(C=CC(=O)Nc5ccccc5N)c4)cc23)c1` has a melting point of 150 to 153 °C.
`NS(=O)(=O)C1C=CC=CC1(CCNC(=O)C=Cc1cccs1)OCc1ccccc1` (configuration not stated) gave a melting point of 177 °C.
With `O=c1ccc(-c2ccc(OC(F)F)c(OCC3CC3)c2)n[nH]1` the melting point was 142 °C.
Work on `CC(C)CNC(=O)/C=C/c1cccc(Cl)c1` yielded a melting point of 112 °C.
`CON1CCC2(CC1)NC(=O)C(c1c(C)cc(C#C[Si](C)(C)C)cc1C)=C2O` showed a melting point greater than 240 °C.
In the case of `CC(C)(C)OC(=O)Cn1c(=O)c(-c2c(Cl)cccc2Cl)cc2cnc(N)nc21`, the melting point was 171 to 173 °C.
Work on `C=C(c1cncn1Cc1ccccc1)C(c1ccc(C)cc1)c1ccc(C)cc1` yielded a melting point of 216 to 220 °C.
In the case of `COc1ccnc(C(=O)c2[nH]c3cc(Cl)ccc3c2NC(C)=O)c1`, the melting point was 207 to 208 °C.
`COc1ccc(NC(=O)OC(C)(C)C)cc1` showed a melting point of 93 to 94 °C.
Work on `NC(=O)Cn1cc(C(=O)c2ccn3c2CSC3c2cccnc2)c2ccc(-c3ccc(F)cc3)cc21` (configuration not stated) yielded a melting point of 215 to 225 °C.
With `O=C(NN1CCCCC1)c1nc(-c2ccc(Cl)cc2Cl)c(-c2ccc(Cl)cc2)o1` the melting point was 165 °C.
Work on `O=c1[nH]c2ncc(-c3ccc(O)cc3)nc2n1CCC1CCOCC1` yielded a melting point of 276 to 277 °C.
`CCC(CC)n1cc(C#N)nc(N2CCc3cc(Cl)cc(Cl)c32)c1=O` gave a melting point of 197 to 199 °C.
With `OCCn1ccc2ncnc(Nc3ccc(Oc4cccc5sncc45)c(Cl)c3)c21` the melting point was 218 to 220 °C.
In the case of `CCOC(=O)COc1ccc(OCc2ccccc2)cc1C(Nc1ccc(C(=N)NC(=O)OC(C)(C)C)cc1)C(=O)OCC` (racemic), the melting point was 258 °C.
`O=C(NC(C(=O)OCc1ccccc1)C(=O)C1CC1)c1ccc(F)cc1` (configuration not stated) showed a melting point of 94.5 to 96 °C.
In the case of `CCCc1nc2c(N)nc3ccc(-c4cccc(CO)c4)cc3c2s1`, the melting point was 176 to 177 °C.
For `Cc1ccc2c(NCc3ccc(NC(=O)C4CCN(Cc5ccccc5)CC4)cc3)nc(N(C)C)nc2c1`, the melting point was 100 °C.
Compound `O=P1(Oc2ccccc2)CCCC(CI)O1` (configuration not stated) has a melting point of 128 °C.
Work on `COc1ccc(OC)c2c1COC2O` (configuration not stated) yielded a melting point of 156 to 158 °C.
Compound `CN1CCCC[C@@H]1Cc1c(-c2ccccc2)[nH]c2ccccc12` has a melting point of 135 °C.
Work on `O=S(=O)(Nc1cccc(CCOCc2ccc(-c3ccc(F)cc3)cc2F)c1)C(F)(F)F` yielded a melting point of 65 to 67 °C.
In the case of `Nc1ccc2c(=O)n3c(nc2c1)C(=Cc1ccc(C(=O)O)cc1)CC3`, the melting point was 336 to 339 °C.
`CS(=O)(=O)Nc1cnc([N+](=O)[O-])cn1` gave a melting point of 204 to 207 °C.
`CC(C)OC(=O)c1cc(O)cc2cc(-c3ccc(O)cc3)oc12` gave a melting point greater than 250 °C.
With `CN(Cc1nc(-c2cc(C(C)(C)C)c(O)c(C(C)(C)C)c2)cn1COCC[Si](C)(C)C)c1ccc([N+](=O)[O-])cc1` the melting point was 149 to 151 °C.
In the case of `Cc1c(N2CCC(N(C)Cc3ccccc3)C2)c(F)cc2c(=O)c(C(=O)O)cn(C3CC3)c12` (configuration not stated), the melting point was 161 °C.
In the case of `COc1cc2c(c3c1OC(C)(C)C3)C(c1cccc(N(C(N)=O)c3cccnc3)c1)=NC(C)(C)C2`, the melting point was 168 to 169 °C.
With `Nc1ccc(CN2CCC(=O)C(=C3SC=CS3)C2=O)cc1` the melting point was 156 to 158 °C.
Compound `ON=C(c1ccccc1)c1ccc(OCCCOc2ccc(C(=NO)c3ccccc3)cc2)cc1` has a melting point of 205 to 208 °C.
`Clc1nc(-c2ccccc2)cc2ccccc12` showed a melting point of 75 to 77 °C.
`CC12CCC3c4ccc(C(=O)O)cc4CCC3C1CCC2C(=O)C#Cc1ccccc1` (configuration not stated) gave a melting point of 174 to 178 °C.
`CCCC[C@H](NC(=O)[C@H](C)NC(=O)OCc1ccccc1)C(=O)CSCc1ccco1` gave a melting point of 85 to 87 °C.
`CC(=O)c1c[nH]c2cn[nH]c2c1=O` gave a melting point greater than 320 °C.
For `Cc1ccc(S(=O)(=O)N[C@H](CO)CCO)cc1`, the melting point was 90 to 92 °C.
For `COc1cc(OC)cc(N2CCN(C(=S)Nc3cc(C(C)O)c(C)cc3OC)CC2)c1` (configuration not stated), the melting point was 146 to 148 °C.
For `COc1cc2c(cc1Cl)C(=O)CC(C)O2` (configuration not stated), the melting point was 96 to 100 °C.
Work on `Clc1ccc(NC2CCCCC2)nn1` yielded a melting point of 161 to 163 °C.
Work on `Cc1nn(-c2ccc(C(F)(F)F)cn2)cc1CCCOc1ccccc1CC(=O)O` yielded a melting point of 128 to 129 °C.
In the case of `CCCc1nc(N2CCc3ccccc3CC2)c(C#N)c(=O)[nH]1`, the melting point was 191 to 193 °C.
`O=C1CCCc2nc3ccccc3c(NCc3ccccc3)c21` gave a melting point of 162 to 163 °C.
In the case of `OCC1CCCn2c(cc3ccccc32)C1` (configuration not stated), the melting point was 109 to 111 °C.
`COc1ccc(C2CCN(C(=O)CCC(=O)c3ccc4c(c3)CCNCC4)CC2)cc1` showed a melting point of 99 to 100 °C.
`CC(=O)NC(C)C(=O)NC(C)C(=O)NC(CC(C)C)C(=O)O` (stereo not drawn) (Ac-Ala-Ala-Leu-OH; configuration not given here) showed a melting point of 185 to 186 °C.
With `COc1cc(C)nc2c(O)cccc12` the melting point was 110 to 112 °C.
For `Cc1nc2c(N)nc3ccccc3c2o1`, the melting point was 195 to 197 °C.
With `CCCC(C)c1nn(-c2ccc(C(F)(F)F)cn2)cc1CCCOc1c(C)cccc1CC(=O)O` (configuration not stated) the melting point was 147 to 148 °C.
Work on `O=C(c1cc(Cl)ccc1O)c1cc(Cl)ccc1O` yielded a melting point of 154 °C.
For `CCOC(=O)C(=O)Nc1cccc(OCCO)c1C(N)=O`, the melting point was 146 to 148 °C.
`CC(O)c1c(-c2ccc(O)cc2)oc2ccc(O)cc12` (configuration not stated) gave a melting point of 177 to 182 °C.
For `CCc1c(Oc2cc(C)cc(C)c2)[nH]c(=O)[nH]c1=O`, the melting point was 91 to 92 °C.
`S=C1C[C@@H](SCc2ccccc2)CN1` gave a melting point of 86 to 88 °C.
`CC1SC(=NO)C(C)(C)NC1=O` (configuration not stated) showed a melting point of 199 to 202 °C.
Compound `O=C1OC(C(O)CO)CCN1Cc1ccccc1` (configuration not stated) has a melting point of 100 to 102 °C.
Compound `Cc1cc(NC(=O)CN2CCN(c3ccccc3C#N)CC2)ccc1Br` has a melting point of 143 to 145 °C.
Compound `CC(C)(C)NC(=O)C(C)(C)N(OC(C)(C)C#N)C(C)(C)C` has a melting point of 77 to 79 °C.
With `CCCOC(=O)c1ccc(CCCCOCCCCCNCC(O)c2ccc(O)c(NS(C)(=O)=O)c2)cc1` (configuration not stated) the melting point was 74 to 76 °C.
`CCCCC1COC(c2ccc(OC(F)(F)F)cc2)OC1` (configuration not stated) showed a melting point of 23 °C.
`COC(=O)c1ccc(Cl)c(CN2CCN(C)C2=O)c1Cl` gave a melting point of 59 °C.
Work on `COC1=CC(=O)c2c(O)c(CO)c(CC(C)O)c(O)c2C1=O` (configuration not stated) yielded a melting point of 206 to 212 °C.
With `C[C@@H](O)C1(c2onc(-c3ccc(O)cc3)c2-c2ccccc2)CC1` the melting point was 213 °C.
Work on `CSc1ccc(C(=O)C#CCO)cc1` yielded a melting point of 73 to 74 °C.
`CN1C(=O)C2(COc3cc4c(cc32)OCCO4)c2c(C(=O)O)cccc21` (configuration not stated) showed a melting point of 297 to 299 °C.
Compound `O=C(Nc1cccc(Br)n1)c1cc(-c2ccc(F)cc2)n(C2CCCCO2)n1` (configuration not stated) has a melting point of 151 to 152 °C.
For `CCn1cnc2c(cnc3c2cnn3CC)c1=O`, the melting point was 167 to 169 °C.
`O=c1[nH]c(-c2c[nH]c3ccccc23)nc2ccc(N3CCCC3)cc12` gave a melting point of 298 °C.
`CCC(C)COc1ccc(N=Nc2ccc(F)cc2)cc1` (configuration not stated) gave a melting point of 64.3 to 65 °C.
`COCC(=O)N[C@H]1CC[C@H](CCN2CCC(c3cccc4c3CCO4)CC2)CC1` showed a melting point of 156 °C.
`CCCNC(=O)c1ccc(F)c2c1CC(N(CCCc1c[nH]c3ccc(F)cc13)C1CCC1)CO2` (configuration not stated) gave a melting point of 67 °C.
For `Cc1ccc(S(=O)(=O)OCCC2COc3ccccc3O2)cc1` (configuration not stated), the melting point was 82 to 83 °C.
Compound `Cc1nc2c3c(ccn2c1C)[C@@H](OCC(F)(F)F)[C@H](O)[C@@H](c1ccccc1)N3` has a melting point of 178 to 180 °C.
Work on `C=C(Cl)CSC1=C(O)CC(C)(C)CC1=O` yielded a melting point of 103 to 106 °C.
`O=C(NCCCCCn1ccnc1)c1cc2cc(Cl)ccc2[nH]1` showed a melting point of 214 to 216 °C.
With `CN(C)C(=O)Sc1ccccc1C#N` the melting point was 70 °C.
`CSCCCOc1nc(-c2ccc(F)cc2C)c2ccc(=O)n(-c3c(F)cccc3F)c2n1` showed a melting point of 127 to 128 °C.
With `OC[C@H](O)[C@@H](O)[C@H](O)[C@H](O)C=NN(Cc1ccccc1)c1ccccc1` the melting point was 124 to 128 °C.
In the case of `COc1ccccc1C(C#N)(CC1CCCCO1)Cn1cncn1` (configuration not stated), the melting point was 120 to 121 °C.
For `OC(CNCc1ccccc1)COc1ccc(CCOCC2CC2)cc1` (configuration not stated), the melting point was 75 to 76 °C.
Compound `NC(=O)N(O)CC1=NOC(c2ccc(F)cc2)C1` (configuration not stated) has a melting point of 151 to 152 °C.
`CCOC(=O)N[C@@H]1CCc2c(ccc(OCc3ccccc3)c2N(C)Cc2ccccc2)[C@H]1O` (relative stereo) showed a melting point of 119 to 120 °C.
`CCOC(=O)C(C)c1ccc(-c2cn3ccccc3n2)cc1` (configuration not stated) gave a melting point of 110 to 112 °C.
Compound `Clc1ccc2c(c1)CCC(c1cccnc1)O2` (configuration not stated) has a melting point of 60 to 63 °C.
Work on `COc1ccc(S(=O)(=O)N2CCc3cccc(-c4ccc(N)cc4)c32)cc1` yielded a melting point of 184 to 186 °C.
In the case of `COC(=O)c1ccc2c(CCC=O)nn(C)c2c1`, the melting point was 80 to 83 °C.
In the case of `CC1(C)C(=O)C(C)(C)c2cc(C(O)CN3CCN(c4nsc5ccccc45)CC3)ccc21` (configuration not stated), the melting point was 189 to 191 °C.
`CC(C)CCCC(C)CCCC(C)CCCC(C)CCP(=O)(O)O` (configuration not stated) showed a melting point of 69 to 72 °C.
With `CN(C)C(=O)Nc1cnc(N(C)C)c(Cl)c1` the melting point was 139 to 141 °C.
`Cn1cc(C2=C(c3cn(C)c4cc(O)ccc34)C(=O)NC2=O)c2ccccc21` showed a melting point of 279 to 282 °C.
`OC(CNc1c(Br)cnc2ccccc12)c1ccccc1` (configuration not stated) gave a melting point of 131 to 132 °C.
For `CC1c2cc(F)ccc2CCN1C(=O)c1cc2ncc(Br)cn2n1` (configuration not stated), the melting point was 174 to 176 °C.
Compound `CC(C)(CCc1nnn[nH]1)c1ccc(C(=O)Nc2cn3cc(C(F)(F)F)ccc3n2)cc1` has a melting point of 250 to 251 °C.
In the case of `Cn1c(=O)c2cc([N+](=O)[O-])cnc2n(C)c1=O`, the melting point was 203 to 205 °C.
`COC(=O)C1=C(C)NN=C(C(=O)OC(C)C)C1c1ccccc1Cl` (configuration not stated) gave a melting point of 166 °C.
With `CC(C)(C)c1ccc2c(c1)C=C(C(=O)O)C(C(F)(F)F)S2` (configuration not stated) the melting point was 184 to 185 °C.
Compound `COc1c(C)cc2ccccc2c1C(CC(=O)O)C(=O)O` (configuration not stated) has a melting point of 159 °C.
Compound `O=Cc1c[nH]c(Cc2ccccc2)n1` has a melting point of 130 to 136 °C.
`O=c1c2cccc3c2n(c(=O)n1CCO)-c1cc(C(F)(F)F)ccc1S3=O` (configuration not stated) gave a melting point of 205 to 206 °C.
With `CN(C)C(=O)C(CCO)C1(C)OCCc2c1[nH]c1ccccc21` (configuration not stated) the melting point was 158 to 160 °C.
Compound `N#Cc1ccc(Sc2ccc3cc(Br)ccc3c2)cc1C(F)(F)F` has a melting point of 114 to 116 °C.
Compound `Cc1oc(-c2ccccc2)nc1CCOc1ccc(CCC(=O)NC(N)=O)cc1` has a melting point of 177 to 178 °C.
`COc1ccc(C=CC(=O)NCCc2ccc(I)c(S(N)(=O)=O)c2)c(OC)c1` gave a melting point of 180 °C.
In the case of `CC(=O)N1CCC(C(=O)c2cc(F)ccc2F)CC1`, the melting point was 82 to 87 °C.
